≈ marks a conversion by molar mass, not a printed value.

One data set addresses T1, hERG channel (Homo sapiens, UniProt Q12809).
T1 construct: expressed in transfected cells; host or cells: CHO cells (ATCC), pcDNA3 vector, G418 selection
Put plainly: hERG channel blockade, whole-cell patch clamp in CHO cells expressing hERG. The class given is cell-based. The following applies: CHO cells with stable hERG expression, room temperature, read-out: hERG Inh. IC50. The text has this: The aim of the test is to determine the concentration range in which the test compound blocks the cardiac hERG channel. Blockade of the hERG channel, which is responsible for the Ikr current in the human heart, is associated with potentially fatal arrhythmias.
For expression of the cDNA encoding the hERG channel it was cloned into the pcDNA3 vector (Invitrogen). Chinese hamster […] (CHO, American Type Culture Collection, Rockville, Md.) were transfected using lipofectamine (GIBCO/BRL, Grand Island, N.Y.) with the hERG cDNA and selected using G418 (GIBCO/BRL, Grand Island, N.Y.; 500 μg/ml). CHO cells with stable expression of the hERG channel were cultured on a HAM F-12 medium which was supplemented with 10% native bovine serum, 1× penicillin/streptomycin and 500 μg/ml G418 in an atmosphere of 95% air/5% carbon dioxide.
The cells selected for the patch clamp experiment are seeded on a plastic support 18-24 hours before the experiment. HERG channel currents are recorded at room temperature by the whole-cell variant of the patch clamp technique using an Axopatch 200B amplifier (Axon Instruments, Foster City, Calif.). The electrodes (3-6 megaohms resistance) are prepared from TW150F glass capillaries (World Precision Instruments, Sarasota, Fla.) and filled with the pipette solution (120 mM potassium aspartate, 20 mM KCl, 4 mM Na2ATP, 5 mM HEPES, 1 mM MgCl2; adjusted to pH 7.2 with KOH). The hERG channel currents are induced by a positive voltage pulse (20 mV) followed by a negative pulse (−40 mV) and are recorded for later analysis. As soon as the hERG channel current of the cell flushed with the control solution ([…], 5 mM KCl, 2.8 mM NaOAc, 1 mM MgCl2, 10 mM HEPES; 10 mM glucose, 1 mM CaCl2; adjusted to pH 7.4 with NaOH) is stable, the cell is perfused with the test compound dissolved in the above control solution (by dilution of a 10 or 100 mM DMSO solution of the test compound so that the DMSO content is no more than 0.1%). The current is followed continuously until no further changes occur. The same procedure is repeated with increasing concentrations of the test compound. The maximum amplitude of the hERG current is measured in picoAmperes (pA) for each concentration and for each cell. The maximum amplitude in pA for each concentration of the test compound is compared with that of the pure control solution in the same cell and calculated as % of the control value.
Evaluation: The test compound is tested at various concentrations in 3-5 CHO cells which express the hERG channel. The IC50 is obtained by use of nonlinear least squares regression (GraphPAD Software, San Diego, Calif.).
(hERG is a cardiac potassium channel; its block is linked to QT prolongation.)

For the next data set, the target named is T2, human MCH receptor (Homo sapiens, UniProt Q99705).
T2 construct: expressed in transfected cells
Briefly: calcium mobilization assay (FLIPR); functional IC50 of MCH1R antagonists. In kind it is cell-based. As to conditions: recombinant HEK293 cell line expressing human MCH receptor; calcium flux after addition of agonist MCH. The text has this: Influence on the MCH Receptor In Vitro; Determination of Functional IC50 Values of MCH1R Antagonists
Cloning of the cDNA for the human MCH receptor, preparation of a recombinant HEK293 cell line which expresses the human MCH receptor, and functional measurements with the recombinant cell line took place in analogy to the description by Audinot et al. (J. Biol. Chem. 2001, 276, 13554-13562). A difference from the reference was, however, the use of the plasmid pEAK8 from EDGE Biosystems (USA) for the construction of the expression vector. The host used for the transfection was a transformed HEK cell line named “PEAK Stable Cells” (likewise from EDGE Biosystems). Functional measurements of the cellular calcium flux after addition of agonist (MCH) in the presence of ligand of the invention took place with the aid of the FLIPR apparatus from Molecular Devices (USA), using protocols of the apparatus manufacturer. The compounds of the invention show a significant inhibition (>30%) of the signal induced by the agonist at a concentration of 100 μM, preferably at 10 μM, particularly preferably at 1 μM, very particularly preferably at 100 nM and very very particularly preferably at 10 nM.
(Calcium flux is commonly read through the fluorescence of an indicator in the cells.)

A short description of another data set: physchem. The following applies: pH 7.4, aqueous buffer, kinetic from dmso stock. In kind it is physicochemical. The procedure:
A DMSO solution of the test compound (2.5 mM; 0.5 μl) is pipetted into 200 μl of an aqueous test solution (e.g. phosphate-buffered saline, 10×, 1M, Sigma, adjusted to 10 mM, pH 7.4) in a 96-well microtiter plate, and the turbidity is measured at the resulting theoretical concentration for the test compound of 6.25 μM using a nephelometer (e.g. Nephelostar Galaxy, BMG Labtech). The concentration of the test compound in the aqueous test solution is then raised to a theoretical 12.5 μM by adding further DMSO solution (2.5 mM; 0.5 μl), and the turbidity measurement is repeated. Further additions of DMSO solutions (1 μl, 2.5 mM; 0.5 μl, 10 mM; then 9×1 μl, 10 mM resulting in theoretical concentrations of 25 μM, 50 μM, 100 μM, 150 μM, 200 μM, 250 μM, 300 μM, 350 μM, 400 μM, 450 μM and 500 μM) with turbidity measurement in between complete the measurement process.
Evaluation: The turbidity values from the nephelometer are plotted against the theoretical concentration of the test compound in the aqueous test solution. As soon as a significant turbidity is detected (e.g. 5 times above the control value of the aqueous test solution) at a theoretical concentration, the level of concentration below this is stated to be the solubility limit of the test compound in the test solution. Thus, the maximum possible measurement range emerges as values <6.25 μM, 6.25−500 μM and >500 μM.

T1 sequence (Q12809 whole entry): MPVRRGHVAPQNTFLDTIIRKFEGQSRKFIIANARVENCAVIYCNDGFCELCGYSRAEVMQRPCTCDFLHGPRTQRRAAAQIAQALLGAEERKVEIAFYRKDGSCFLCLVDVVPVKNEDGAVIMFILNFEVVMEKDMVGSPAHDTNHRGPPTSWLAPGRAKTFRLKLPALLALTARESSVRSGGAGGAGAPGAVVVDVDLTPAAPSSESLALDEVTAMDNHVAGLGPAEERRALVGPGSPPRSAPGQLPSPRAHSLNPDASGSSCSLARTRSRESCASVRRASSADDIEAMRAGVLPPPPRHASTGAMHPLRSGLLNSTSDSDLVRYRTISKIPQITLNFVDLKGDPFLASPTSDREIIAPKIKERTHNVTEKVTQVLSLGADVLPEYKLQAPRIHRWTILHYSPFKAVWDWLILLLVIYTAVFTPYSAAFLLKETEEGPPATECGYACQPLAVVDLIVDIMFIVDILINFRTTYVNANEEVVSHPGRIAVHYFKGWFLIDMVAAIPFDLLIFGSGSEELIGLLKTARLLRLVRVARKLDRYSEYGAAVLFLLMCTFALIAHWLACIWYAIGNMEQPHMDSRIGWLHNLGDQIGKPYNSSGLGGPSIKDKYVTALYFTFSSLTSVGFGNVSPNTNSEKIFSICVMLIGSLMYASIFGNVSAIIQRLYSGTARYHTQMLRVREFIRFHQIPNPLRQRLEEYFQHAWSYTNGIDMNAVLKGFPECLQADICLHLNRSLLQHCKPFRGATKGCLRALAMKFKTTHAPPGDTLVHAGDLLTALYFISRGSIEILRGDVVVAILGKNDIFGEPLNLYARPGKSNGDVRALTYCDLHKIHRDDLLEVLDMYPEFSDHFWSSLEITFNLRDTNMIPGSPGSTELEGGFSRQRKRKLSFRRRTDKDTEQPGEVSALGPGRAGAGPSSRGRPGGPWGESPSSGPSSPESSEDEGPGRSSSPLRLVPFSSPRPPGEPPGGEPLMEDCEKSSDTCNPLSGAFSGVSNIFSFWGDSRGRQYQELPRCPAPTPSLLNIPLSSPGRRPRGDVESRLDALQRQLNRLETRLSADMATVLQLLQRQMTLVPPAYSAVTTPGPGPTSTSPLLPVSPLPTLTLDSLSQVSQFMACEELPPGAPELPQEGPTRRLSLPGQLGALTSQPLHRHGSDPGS
T2 sequence (Q99705 whole entry): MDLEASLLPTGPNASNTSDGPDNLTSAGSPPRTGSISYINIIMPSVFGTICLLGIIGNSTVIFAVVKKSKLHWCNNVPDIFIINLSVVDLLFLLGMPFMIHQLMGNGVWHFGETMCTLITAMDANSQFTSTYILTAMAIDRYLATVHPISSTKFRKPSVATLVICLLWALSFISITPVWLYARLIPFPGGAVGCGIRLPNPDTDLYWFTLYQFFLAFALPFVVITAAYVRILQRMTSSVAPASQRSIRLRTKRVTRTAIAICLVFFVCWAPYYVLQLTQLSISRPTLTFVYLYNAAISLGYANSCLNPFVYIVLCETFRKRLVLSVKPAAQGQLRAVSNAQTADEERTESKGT

In the case of `O=C(N[C@H]1CCc2cc(CN3CCCC3)ccc2C1)c1ccc(OC[C@@H]2CCCO2)cc1` [Example 1, N-((S)-6-Pyrrolidin-1-ylmethyl-1,2,3,4-tetrahydronaphthalen-2-yl)-4-[(S)-1-(tetrahydrofuran-2-yl)methoxy]benzamide], the IC50 (as a rule, the concentration that inhibits the measured activity by half) at hERG channel is > 30 µM; on human MCH receptor, 90 nM. Besides, in “physchem”, the kinetic solubility – broadly, the concentration staying in solution when a stock, usually in DMSO, is diluted into the medium – is > 500 µM.
In the case of `O=C(N[C@H]1CCc2cc(CNC3CCCCC3)ccc2C1)c1ccc(OC[C@@H]2CCCO2)cc1` [Example 3-6], the IC50 at hERG channel is > 10 µM. Moreover, the kinetic solubility in the data set “physchem” is > 500 µM.
`CC(C)(C)CNCc1ccc2c(c1)CC[C@H](NC(=O)c1ccc(OC[C@@H]3CCCO3)cc1)C2` [Example 3-34]: the figures for the IC50 at hERG channel and on human MCH receptor were > 30 µM and 100 nM, respectively. In “physchem”, the solubility (kinetic) is 50 µM (≈ 22.5 µg/mL).
On to `O=C(N[C@H]1CCc2cc(CN3CC4CCC3C4)ccc2C1)c1ccc(OC[C@@H]2CCCO2)cc1` (stereo partly shown) [Example 3-83], for which the IC50 on hERG channel is > 30 µM. Further, the kinetic solubility in the data set “physchem” is > 500 µM.
For `CC1(C)CCN(Cc2ccc3c(c2)CC[C@H](NC(=O)c2ccc(OC[C@@H]4CCCO4)cc2)C3)CC1` [Example 3-166], the IC50 is > 10 µM at hERG channel and 110 nM at human MCH receptor. For the same compound, the kinetic solubility in “physchem” worked out at 450 µM (≈ 214 µg/mL).
For `COC1CCN(Cc2ccc3c(c2)CC[C@H](N2CCc4cc(OC[C@@H]5CCCO5)ccc4C2=O)C3)CC1` [Example 14, 2-[(S)-6-(4-Methoxypiperidin-1-ylmethyl)-1,2,3,4-tetrahydronaphthalen-2-yl]-6-[(S)-1-(tetrahydrofuran-2-yl)methoxy]-3,4-dihydro-2H-isoquinolin-1-one] the same measures were > 10 µM, 630 nM and > 500 µM.
